# Measured values as given in patent US20090246292A1, “ANTIMICROBIAL FORMULATIONS COMPRISING A QUINONE AND A COPPER SALT” (priority 2006, published 2009).
# Read-outs that look alike come from different tables or passages of the source.
# What was measured:
# P. acnes NCTC 737 [1] = test: Minimum inhibitory concentration (MIC) assay; assay type: cell-based, Propionibacterium acnes
# From the text: (§1) (a) Minimum Inhibitory Concentration (MIC) Assay
# (§2) The culture media were as described above.
# (§3) The assays included both negative (culture medium with no micro-organisms) and positive (culture medium plus diluting solvent plus micro-organism) controls.
# P. acnes NCTC 737 [2] = test: Disc diffusion assay (DDA), also supplemented;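 also: paper disc carrying compound placed on inoculated Wilkins-Chalgren Anaerobe agar pH 6.0, with lipid or NaCl supplement where listed, anaerobic 37 °C for 72 h, inhibition zone diameter read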
# S. aureus ATCC 29213 [3] = test: Disc diffusion assay (DDA), also supplemented
# Procedure: The staphylococci were cultured and maintained on Mueller-Hinton Medium (agar and broth) at pH 7.2; cultures were incubated aerobically at 37° C. for 19-20 hours.
# (d) Disc Diffusion Assay (DDA)
# A sterile paper disc was impregnated with a sample of the test compound in a suitable solvent and 30 minutes allowed for the solvents to evaporate (where possible). The disc was then placed on an agar plate onto which the test micro-organism had been inoculated. The plate was then incubated under the conditions described above, following which it was examined visually for signs of bacterial growth. […] The diameter of this zone of “inhibition” was measured using a ProtoCOL™ automated zone sizer (Synbiosis, Cambridge, UK).
# (f) Supplemented Disc Diffusion Assays
# (§6) For assays using S. aureus ATCC 29213 the supplements used were sodium chloride (100 mM), lipid (Tween™ 80 at 1% v/v) and horse serum (5% v/v).
# S. aureus ATCC 29213 [4] = test: Synergy disc diffusion assay (SDDA), also supplemented;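 also: disc diffusion on Mueller-Hinton agar at pH 7.2, aerobic incubation at 37 °C lasting 19-20 h, two compounds assessed jointly for combined antimicrobial effect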
# Procedure: (e) Synergy Disc Diffusion Assay (SDDA)
# This is a variation on the DDA method, in which two compounds are tested together for their combined antimicrobial activity.
# Two test compounds A and B were placed on a single paper disc and the above described DDA procedure repeated.
# (f) Supplemented Disc Diffusion Assays
# as §6
# P. acnes NCTC 737 [5] = test: Minimum bactericidal concentration (MBC) assay; assay type: cell-based, Propionibacterium acnes
# Procedure: (§4) (b) Minimum Bactericidal Concentration (MBC) Assay
# (§5) Following incubation they were examined visually for bacterial growth.
# S. aureus ATCC 29213 [6] = test: Minimum inhibitory concentration (MIC) assay; assay type: cell-based, Staphylococcus aureus
# From the text: as §1, §2, §3
# P. acnes NCTC 737 [7] = test: Synergy disc diffusion assay (SDDA), also supplemented
# S. aureus ATCC 29213 [8] = test: Minimum bactericidal concentration (MBC) assay; assay type: cell-based, Staphylococcus aureus
# Procedure: as §4, §5
# [9] = copper salt alone, P. acnes NCTC 737
# [10] = copper salt alone, 200 μg per disc (silicate 62 μg), 1% (v/v) Tween 80
# [11] = copper salt alone, 200 μg per disc (silicate 62 μg), salt and 1% (v/v) Tween 80
# [12] = copper salt alone, 200 μg per disc (silicate 62 μg), sodium chloride (100 mM)
# [13] = copper salt alone, 200 μg per disc (silicate 62 μg), Tween 80 at 1% v/v
# [14] = copper salt alone, 200 μg per disc (silicate 62 μg), salt and horse serum (5% v/v)
# [15] = copper salt + TBHQ on one disc, 200 μg of each (silicate 62 μg), salt and serum supplements
# [16] = copper salt + TBHQ on one disc, 200 μg of each (silicate 62 μg), unsupplemented
# [17] = copper salt + TBHQ vs larger zone of either compound alone, unsupplemented
# [18] = copper salt + TBHQ, salt and serum supplements
# [19] = copper salt + TBHQ, unsupplemented
# [20] = copper salt alone, S. aureus ATCC 29213
# [21] = copper salt + TBHQ on one disc, 200 μg of each (silicate 62 μg), salt and lipid (1% (v/v) Tween 80)
# [22] = copper salt + TBHQ, salt and lipid (1% (v/v) Tween 80)
substance,measurement,setting,value
Copper (I) oxide,MIC,P. acnes NCTC 737 [1]; [9],1.95 µg/mL
same,MIC/MBC ratio,P. acnes NCTC 737 [1]; [9],0.06
same,DDA + lipid,P. acnes NCTC 737 [2]; [10],37.42 mm
same,DDA + salt & lipid,P. acnes NCTC 737 [2]; [11],43.49 mm
same,DDA + salt,P. acnes NCTC 737 [2]; [12],44.85 mm
same,DDA + lipid,S. aureus ATCC 29213 [3]; [13],0 mm
same,DDA + salt & serum,S. aureus ATCC 29213 [3]; [14],0 mm
same,DDA + salt,S. aureus ATCC 29213 [3]; [12],0 mm
same,SS SDDA with TBHQ,S. aureus ATCC 29213 [4]; [15],45.26 mm
same,SDDA with TBHQ,S. aureus ATCC 29213 [4]; [16],57.05 mm
same,SDDA increase,S. aureus ATCC 29213 [4]; [17],16.63 mm
same,SS SDDA area increase,S. aureus ATCC 29213 [4]; [18],7.37%
same,SS SDDA increase,S. aureus ATCC 29213 [4]; [18],1.58 mm
same,SDDA area increase,S. aureus ATCC 29213 [4]; [19],99.21%
same,MBC,P. acnes NCTC 737 [5]; [9],31.25 µg/mL
same,MIC,S. aureus ATCC 29213 [6]; [20],>250 µg/mL
same,SL SDDA with TBHQ,P. acnes NCTC 737 [7]; [21],51.73 mm
same,SDDA with TBHQ,P. acnes NCTC 737 [7]; [16],50.06 mm
same,SDDA increase,P. acnes NCTC 737 [7]; [17],1.25 mm
same,SL SDDA area increase,P. acnes NCTC 737 [7]; [22],41.48%
same,SL SDDA increase,P. acnes NCTC 737 [7]; [22],8.24 mm
same,SDDA area increase,P. acnes NCTC 737 [7]; [19],5.18%
same,MBC,S. aureus ATCC 29213 [8]; [20],>250 µg/mL
Copper (II) salicylate,MIC,P. acnes NCTC 737 [1],7.8 µg/mL
same,MIC/MBC ratio,P. acnes NCTC 737 [1],0.25
same,DDA,P. acnes NCTC 737 [2],47.77 mm
same,DDA + lipid,P. acnes NCTC 737 [2],41.75 mm
same,DDA + salt,P. acnes NCTC 737 [2],46.08 mm
same,DDA + salt & lipid,P. acnes NCTC 737 [2],50.69 mm
same,DDA,S. aureus ATCC 29213 [3],0 mm
same,DDA + lipid,S. aureus ATCC 29213 [3],0 mm
same,DDA + salt,S. aureus ATCC 29213 [3],0 mm
same,DDA + salt & serum,S. aureus ATCC 29213 [3],0 mm
same,SDDA area increase,S. aureus ATCC 29213 [4],61.52%
same,SDDA increase,S. aureus ATCC 29213 [4],10.95 mm
same,SDDA with TBHQ,S. aureus ATCC 29213 [4],51.37 mm
same,SS SDDA area increase,S. aureus ATCC 29213 [4],9.37%
same,SS SDDA increase,S. aureus ATCC 29213 [4],2.00 mm
same,SS SDDA with TBHQ,S. aureus ATCC 29213 [4],45.68 mm
same,MBC,P. acnes NCTC 737 [5],31.25 µg/mL
same,MIC,S. aureus ATCC 29213 [6],250 µg/mL
same,MIC/MBC ratio,S. aureus ATCC 29213 [6],<1
same,SDDA area increase,P. acnes NCTC 737 [7],150.52%
same,SDDA increase,P. acnes NCTC 737 [7],27.84 mm
same,SDDA with TBHQ,P. acnes NCTC 737 [7],75.61 mm
same,SL SDDA area increase,P. acnes NCTC 737 [7],84.98%
same,SL SDDA increase,P. acnes NCTC 737 [7],18.25 mm
same,SL SDDA with TBHQ,P. acnes NCTC 737 [7],68.94 mm
same,MBC,S. aureus ATCC 29213 [8],>250 µg/mL
Copper (II) silicate,MIC,P. acnes NCTC 737 [1]; [9],4.84 µg/mL
same,MIC/MBC ratio,P. acnes NCTC 737 [1]; [9],0.125
same,DDA + salt & lipid,"P. acnes NCTC 737 [2]; Example 8, single compound, salt and 1% (v/v) triolein",42.56 (±2.18) mm
same,DDA + lipid,P. acnes NCTC 737 [2]; [10],33.40 mm
same,DDA + salt & lipid,P. acnes NCTC 737 [2]; [11],48.81 mm
same,DDA + salt,P. acnes NCTC 737 [2]; [12],41.44 mm
same,DDA + salt & serum,"S. aureus ATCC 29213 [3]; Example 9, single compound, salt and serum",0.00 (±0.00) mm
same,DDA + lipid,S. aureus ATCC 29213 [3]; [13],0 mm
same,DDA + salt & serum,S. aureus ATCC 29213 [3]; [14],0 mm
same,DDA + salt,S. aureus ATCC 29213 [3]; [12],0 mm
same,SS SDDA with TBHQ,S. aureus ATCC 29213 [4]; [15],57.26 mm
same,SDDA with TBHQ,S. aureus ATCC 29213 [4]; [16],71.79 mm
same,SDDA increase,S. aureus ATCC 29213 [4]; [17],31.37 mm
same,SS SDDA area increase,S. aureus ATCC 29213 [4]; [18],71.85%
same,SS SDDA increase,S. aureus ATCC 29213 [4]; [18],13.58 mm
same,SDDA area increase,S. aureus ATCC 29213 [4]; [19],215.45%
same,MBC,P. acnes NCTC 737 [5]; [9],38.75 µg/mL
same,MIC,S. aureus ATCC 29213 [6]; [20],>77.5 µg/mL
same,SL SDDA with TBHQ,P. acnes NCTC 737 [7]; [21],54.96 mm
same,SDDA with TBHQ,P. acnes NCTC 737 [7]; [16],54.44 mm
same,SDDA increase,P. acnes NCTC 737 [7]; [17],8.76 mm
same,SL SDDA area increase,P. acnes NCTC 737 [7]; [22],26.80%
same,SL SDDA increase,P. acnes NCTC 737 [7]; [22],6.15 mm
same,SDDA area increase,P. acnes NCTC 737 [7]; [19],42.03%
same,MBC,S. aureus ATCC 29213 [8]; [20],>77.5 µg/mL
Copper (II)-D-gluconate,MIC,P. acnes NCTC 737 [1]; [9],62.5 µg/mL
same,MIC/MBC ratio,P. acnes NCTC 737 [1]; [9],0.5
same,DDA,P. acnes NCTC 737 [2],45.37 mm
same,DDA + lipid,P. acnes NCTC 737 [2]; [10],27.36 mm
same,DDA + salt & lipid,P. acnes NCTC 737 [2]; [11],47.04 mm
same,DDA + salt,P. acnes NCTC 737 [2]; [12],37.93 mm
same,DDA,S. aureus ATCC 29213 [3],0 mm
same,DDA + lipid,S. aureus ATCC 29213 [3]; [13],0 mm
same,DDA + salt & serum,S. aureus ATCC 29213 [3]; [14],0 mm
same,DDA + salt,S. aureus ATCC 29213 [3]; [12],0 mm
same,SS SDDA with TBHQ,S. aureus ATCC 29213 [4]; [15],53.37 mm
same,SDDA with TBHQ,S. aureus ATCC 29213 [4]; [16],68.32 mm
same,SDDA increase,S. aureus ATCC 29213 [4]; [17],27.90 mm
same,SS SDDA area increase,S. aureus ATCC 29213 [4]; [18],49.29%
same,SS SDDA increase,S. aureus ATCC 29213 [4]; [18],9.69 mm
same,SDDA area increase,S. aureus ATCC 29213 [4]; [19],185.69%
same,MBC,P. acnes NCTC 737 [5]; [9],125 µg/mL
same,MIC,S. aureus ATCC 29213 [6]; [20],>250 µg/mL
same,SL SDDA with TBHQ,P. acnes NCTC 737 [7]; [21],53.19 mm
same,SDDA with TBHQ,P. acnes NCTC 737 [7]; [16],53.5 mm
same,SDDA increase,P. acnes NCTC 737 [7]; [17],8.13 mm
same,SL SDDA area increase,P. acnes NCTC 737 [7]; [22],27.88%
same,SL SDDA increase,P. acnes NCTC 737 [7]; [22],6.15 mm
same,SDDA area increase,P. acnes NCTC 737 [7]; [19],39.05%
same,MBC,S. aureus ATCC 29213 [8]; [20],>250 µg/mL
